From article PMC7927014, “Novel Small Molecule Hsp90/Cdc37 Interface Inhibitors Indirectly Target K-Ras-Signaling” (Cancers, 2021)

System: HIF-1α
Assay: Western blotting of HIF-1α in nuclear extracts
Type: cell-based
Conditions: Western blot of nuclear extracts, 24 h; K-RasG12V-transfected HEK and MDA-MB-231 cells; conglobatin A 5 or 10 μM, 17-AAG 2 μM
Description: The cells in the RIPA buffer were placed on ice for 20 min, and were then sonicated in ice cold water for 5 min. […] Equal amounts of protein were separated by 10% SDS-PAGE, and were then transferred onto a nitrocellulose membrane (cat. no. NBA 083C001EA, Protran) using a wet transfer system (Bio-Rad) or semidry Transferblot Turbo Transfer System (Bio-Rad). After the transfer, the membranes were blocked for 30 min in 5% skimmed milk dissolved in 1× TBST, and then incubated with 1:2000 primary antibodies in 5% BSA in TBST at 4 °C overnight.
The next day, the membranes were washed three times in TBST for 10 min, and then incubated with secondary antibodies (1:5000) diluted in 5% skimmed milk in TBST for 1 h at RT. […] All of the antigens and molecular weights in kDa are labelled next to the blots on the figures. Uncropped Western blot data are attached as Figure S6.

Q: `C/C1=C\[C@H](C)C[C@H](C)[C@H](Cc2cnco2)OC(=O)/C(C)=C/[C@H](C)C[C@H](C)[C@H](Cc2cnco2)OC1=O` [conglobatin A, reference compound] was tested. Which “nuclear levels of HIF-1α” value did it give?
A: Its value is “decreased the nuclear levels of HIF-1α”.
